Data on 3 compounds can be found in paper PMC8600679, “Substituted Two- to Five-Ring Polycyclic Aromatic Compounds Are Potent Agonists of Atlantic Cod (Gadus morhua) Aryl Hydrocarbon Receptors Ahr1a and Ahr2a” (Environmental Science & Technology, 2021).

Where two headings read alike, the source gives them in different places.

The target of one series is Atlantic cod Ahr1a (Gadus morhua, UniProt A0A6H1Z2L5). The series is described as follows: cell-based. As to conditions: for Ahr1a REP25: EC25 of TCDD divided by concentration of PAC giving 25% of TCDD response; for Efficacy compared to TCDD with Ahr1a: Welch's t-test, Supporting Table S6.
For a further series, the target named is T1, Atlantic cod Ahr2a (Gadus morhua, UniProt A0A6H1Z3G8).
T1 sequence (A0A6H1Z3G8 1-1127): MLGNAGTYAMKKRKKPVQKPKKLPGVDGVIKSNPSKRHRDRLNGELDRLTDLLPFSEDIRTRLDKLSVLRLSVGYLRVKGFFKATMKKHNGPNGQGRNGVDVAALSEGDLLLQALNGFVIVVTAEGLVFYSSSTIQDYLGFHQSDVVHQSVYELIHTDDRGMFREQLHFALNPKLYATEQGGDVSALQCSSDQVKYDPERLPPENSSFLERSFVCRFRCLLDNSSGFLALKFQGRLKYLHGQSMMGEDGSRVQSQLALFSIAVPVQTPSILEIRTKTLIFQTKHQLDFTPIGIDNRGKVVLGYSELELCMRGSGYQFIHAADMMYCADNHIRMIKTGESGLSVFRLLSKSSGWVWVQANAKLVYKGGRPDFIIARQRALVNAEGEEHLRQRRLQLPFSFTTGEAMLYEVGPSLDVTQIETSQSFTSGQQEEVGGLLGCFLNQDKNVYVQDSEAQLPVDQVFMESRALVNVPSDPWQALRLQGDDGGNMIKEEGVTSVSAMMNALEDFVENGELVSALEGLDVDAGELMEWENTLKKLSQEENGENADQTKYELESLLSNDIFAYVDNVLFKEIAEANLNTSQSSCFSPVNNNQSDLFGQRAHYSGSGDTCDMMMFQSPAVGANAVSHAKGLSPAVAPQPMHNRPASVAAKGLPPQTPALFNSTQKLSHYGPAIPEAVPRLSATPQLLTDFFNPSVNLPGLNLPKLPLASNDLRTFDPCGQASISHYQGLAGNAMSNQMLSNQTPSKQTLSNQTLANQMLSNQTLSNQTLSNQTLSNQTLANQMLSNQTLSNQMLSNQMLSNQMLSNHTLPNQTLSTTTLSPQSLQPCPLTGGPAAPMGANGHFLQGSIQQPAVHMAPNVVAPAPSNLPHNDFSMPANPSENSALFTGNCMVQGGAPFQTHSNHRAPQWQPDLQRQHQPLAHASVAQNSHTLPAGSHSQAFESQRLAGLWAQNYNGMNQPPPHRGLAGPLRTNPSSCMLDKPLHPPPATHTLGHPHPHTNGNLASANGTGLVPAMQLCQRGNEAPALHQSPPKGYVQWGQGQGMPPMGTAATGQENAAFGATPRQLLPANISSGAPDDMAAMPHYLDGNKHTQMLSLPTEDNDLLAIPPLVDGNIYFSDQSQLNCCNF
The series is described as follows: cell-based. As to conditions: for Ahr2a REP25: EC25 of TCDD divided by concentration of PAC giving 25% of TCDD response; for Efficacy compared to TCDD via Ahr2a: Welch's t-test, Supporting Table S6.

The subject of another series is COS-7 cells. The series is described as follows: Resazurin reduction viability assay. The series is classed as cell-based, simian. The note with it: highest concentrations used; relative to 0.5% DMSO solvent control. As to the method:
COS-7 simian kidney cells were seeded onto 96 well plates (10 000 cells/well) in Dulbecco’s modified Eagle’s medium (DMEM) with phenol red, supplemented with 10% fetal bovine serum (FBS), 4 mM L-glutamate, 1 mM sodium pyruvate, and 100 U/mL penicillin–streptomycin (Merck KGaA, Darmstadt, Germany), and cultivated at 37 °C with 5% CO2 for 24 h. Cells were transiently co-transfected with a eukaryotic expression plasmid (pcDNA3.1/Zeo(+), 31 ng/well), pcDNA3.1/Zeo(+)-based plasmids encoding gmAhr1a or gmAhr2a (3 ng/well), gmArnt1 (6 ng/well),[37] a luciferase reporter plasmid containing four DREs (pGudLuc6.1, 30 ng/well), and a β-galactosidase normalization plasmid (pCMV-βGAL, 30 ng/well),[45],[46] using a Mirus TransIT LT-1 transfection reagent according to the recommendations of the supplier. COS-7 cells were seeded and cultivated in DMEM (4500 mg/L glucose), supplemented with 10% FBS, 1 mM sodium pyruvate, and 4 mM L-glutamine. In the exposure medium, FBS was substituted with 10% charcoal-stripped FBS (VWR International, Radnor). To create the exposure media with the highest test concentration, compounds solved in dimethyl sulfoxide (DMSO) were diluted 1:200 in exposure medium, resulting in exposure media with 1× test compound and 0.5% DMSO. The highest concentration exposure media were serially diluted five times (1:2 for the first dilution, then 1:5) in exposure medium supplemented with 0.5% DMSO. Following transfection, cells were incubated in exposure media containing PACs or solvent control (0.5% DMSO) for 24 h. Reporter gene assays were repeated at least three times and with three technical replicates per exposure. TCDD (30 pM to 100 nM) was used as a known agonist in each experiment. Absorbance and luminescence measurements were performed on an EnSpire Multimode plate reader (PerkinElmer, Waltham, MA). While no wavelength filtering was used to measure firefly luciferase activity by luminescence, absorbance measurements to quantify β-galactosidase activity were performed at 420 nm wavelength. The viability of exposed cells was evaluated using the resazurin reduction assay as previously described.[47],[48]
Recorded luminescence was normalized for variation in transfection efficiencies using β-galactosidase enzyme activity. The difference in normalized light units measured in lysates from exposed cells to solvent-exposed cells was calculated and expressed relative to the maximum response in TCDD-exposed cells. Response curves were prepared by nonlinear regression analyses in Prism v7 and used for the determination of half-maximal effective concentration values (EC50) and maximum efficacies (Emax). EC50 values were only determined for compounds that produced a sigmoidal concentration–response curve. Relative effect potencies 25 (REP25) were determined by dividing the EC25 of TCDD by the concentration of PAC necessary to produce a response equal to 25% of the response of TCDD with gmAhrs, essentially as described by Villeneuve et al. and Lam et al.[49],[50] The D’Agostino–Pearson (Ahr activation data) or Kolmogorov–Smirnov (viability data) normality tests were used to confirm the normal distribution of the data. One-way analysis of variance (ANOVA) and Dunnett′s test were used to compare responses at different concentrations of compounds and solvent control mediated via the same Ahr, in addition to comparing metabolic activity in PAC-exposed cells and cells exposed to solvent control in the resazurin reduction assay. Welch′s t-test was used to compare the maximum Ahr-mediated response and potency (Emax and EC50) between Ahr1a or Ahr2a produced by the same test compound (Prism v7).

On the set-up of series [1]: method as in PMID 29505926. The note with it: cited from earlier work.
A further series concerns rat AHR. More on the design: method as in PMID 17941736, PMID 25108069. The note with it: H4IIE-luc reporter assay; cited from earlier work.
The mark [2] stands for this setting: COS-7 cells, 24 h exposure, read-out: Ahr1a EC50.
Setting [3] is: percent of maximum efficacy determined for TCDD, COS-7 cells, 24 h exposure, None = no agonistic response significantly different from solvent, read-out: Ahr1a Relative Emax (%).
Where [4] appears, read: COS-7 cells, 24 h exposure, read-out: Ahr2a EC50.
[5] abbreviates: Supplementary Table S5, read-out: Potency (EC50, nM) Ahr2a.
Where [6] appears, read: percent of maximum efficacy determined for TCDD, COS-7 cells, 24 h exposure, None = no agonistic response significantly different from solvent, read-out: Ahr2a Relative Emax (%).

What is called EC50 is the midpoint of the concentration-response curve. Broadly, the Emax is the maximal effect, on the per cent scale that the assay sets. By melting point is commonly meant the temperature, or range, at which the solid turns liquid.

Chain of Atlantic cod Ahr1a (A0A6H1Z2L5 1-957): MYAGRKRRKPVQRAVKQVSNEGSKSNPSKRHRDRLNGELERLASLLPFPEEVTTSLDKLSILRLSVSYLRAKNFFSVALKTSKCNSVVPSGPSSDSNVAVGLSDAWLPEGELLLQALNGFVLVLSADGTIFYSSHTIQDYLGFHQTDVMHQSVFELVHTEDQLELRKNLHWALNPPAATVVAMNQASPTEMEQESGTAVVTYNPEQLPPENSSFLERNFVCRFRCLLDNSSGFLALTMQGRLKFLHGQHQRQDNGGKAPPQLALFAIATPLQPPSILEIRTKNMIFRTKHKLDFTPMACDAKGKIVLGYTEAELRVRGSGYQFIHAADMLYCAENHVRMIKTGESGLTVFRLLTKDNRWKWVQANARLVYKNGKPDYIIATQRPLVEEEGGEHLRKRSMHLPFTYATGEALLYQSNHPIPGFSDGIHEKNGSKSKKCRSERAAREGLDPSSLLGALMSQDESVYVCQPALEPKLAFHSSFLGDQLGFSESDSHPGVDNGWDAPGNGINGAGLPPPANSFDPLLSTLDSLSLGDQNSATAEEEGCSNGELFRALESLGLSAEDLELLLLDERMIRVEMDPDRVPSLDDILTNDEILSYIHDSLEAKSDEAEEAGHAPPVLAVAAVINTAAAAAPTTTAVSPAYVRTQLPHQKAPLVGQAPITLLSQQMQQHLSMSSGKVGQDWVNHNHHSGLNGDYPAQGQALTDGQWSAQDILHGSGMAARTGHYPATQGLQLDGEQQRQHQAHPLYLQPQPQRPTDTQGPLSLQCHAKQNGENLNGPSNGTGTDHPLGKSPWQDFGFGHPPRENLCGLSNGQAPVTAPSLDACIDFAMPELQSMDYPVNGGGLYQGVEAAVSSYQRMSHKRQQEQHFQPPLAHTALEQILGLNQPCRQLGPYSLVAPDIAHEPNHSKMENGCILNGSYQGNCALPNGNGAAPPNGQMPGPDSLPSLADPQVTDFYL
Chain of Atlantic cod Ahr1a (A0A8C5CZZ9 1-645 partner): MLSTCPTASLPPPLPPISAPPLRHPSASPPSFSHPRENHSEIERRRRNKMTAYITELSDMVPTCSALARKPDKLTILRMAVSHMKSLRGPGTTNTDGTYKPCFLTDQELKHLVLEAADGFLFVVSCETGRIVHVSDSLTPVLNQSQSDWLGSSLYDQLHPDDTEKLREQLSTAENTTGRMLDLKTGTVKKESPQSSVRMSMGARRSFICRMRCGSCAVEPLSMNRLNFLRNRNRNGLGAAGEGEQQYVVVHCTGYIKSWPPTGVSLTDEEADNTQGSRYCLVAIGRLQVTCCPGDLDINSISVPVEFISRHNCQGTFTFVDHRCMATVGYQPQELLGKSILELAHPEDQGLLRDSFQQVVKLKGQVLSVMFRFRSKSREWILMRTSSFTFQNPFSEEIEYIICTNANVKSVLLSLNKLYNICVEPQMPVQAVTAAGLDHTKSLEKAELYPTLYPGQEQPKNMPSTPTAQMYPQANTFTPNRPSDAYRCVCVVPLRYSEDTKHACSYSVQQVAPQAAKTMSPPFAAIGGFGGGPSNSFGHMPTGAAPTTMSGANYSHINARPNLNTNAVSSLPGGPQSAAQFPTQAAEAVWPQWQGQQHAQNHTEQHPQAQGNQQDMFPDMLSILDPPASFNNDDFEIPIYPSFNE

Consider `COc1cc2ccc3c4ccccc4ccc3c2cc1OC` [2,3-DMOC, 2,3-Dimethoxychrysene], for which the melting point is 212 to 213.5 °C. Besides, the concentration for a half-maximal effect (EC50) on Atlantic cod Ahr1a (setting [2]) turned out to be 199 nM. For the same compound, on Atlantic cod Ahr1a, the “Ahr1a REP25” value is on record as 0.0083 and the “Efficacy compared to TCDD with Ahr1a” value was “lower efficacies than TCDD”. Moreover, on Atlantic cod Ahr1a (in vitro transactivation), the “Activation of Ahr1a (agonist or not)” value is listed as “activated the two Ahrs”. Also, the maximal response (Emax) on Atlantic cod Ahr1a (setting [3]) came out at 77.5%. Also, the concentration giving a half-maximal response (EC50) at Atlantic cod Ahr2a (setting [4]) was determined as 359 nM. Further, on Atlantic cod Ahr2a, the “Ahr2a REP25” value came out at 0.00911 and the “Efficacy compared to TCDD via Ahr2a” value is given as “lower efficacies in comparison to TCDD”. Besides, the EC50 at Atlantic cod Ahr2a (setting [5]) came to 359 nM. Moreover, the “Activation of Ahr2a (agonist or not)” value on Atlantic cod Ahr2a (in vitro transactivation) is reported as “activated the two Ahrs”. On Atlantic cod Ahr2a (setting [6]), the Emax was found to be 55%.

Take `Cc1cc2ccccc2c2ccc3ccccc3c12` [5-MC, 5-Methylchrysene]: the EC50 on Atlantic cod Ahr1a (setting [2]) was 596 nM; at Atlantic cod Ahr1a (Supplementary Table S5, read-out: Potency (EC50, nM) Ahr1a), 596 nM; on Atlantic cod Ahr2a (setting [4]), 193 nM; at Atlantic cod Ahr2a (setting [5]), 193 nM. At Atlantic cod Ahr1a, the “Ahr1a REP25” value came to 0.00494. Moreover, the “Efficacy compared to TCDD with Ahr1a” value on Atlantic cod Ahr1a was “efficacies similar to that of TCDD”. Also, the values for the Emax on Atlantic cod Ahr1a (setting [3]) and at Atlantic cod Ahr2a (setting [6]) were 90.1% and 68.4%, respectively. For the same compound, at Atlantic cod Ahr2a (Ahr2a versus Ahr1a), the “fold higher REP25 with Ahr2a compared to Ahr1a” value was 5- to 10 fold. Also, on Atlantic cod Ahr2a, the “Ahr2a REP25” value was 0.0495. Besides, the “Efficacy compared to TCDD via Ahr2a” value on Atlantic cod Ahr2a is “lower efficacies in comparison to TCDD”. In the series with COS-7 cells, the “Metabolic activity (cell viability) of exposed COS-7 cells” value was “slight reduction in metabolic activities”. The “agonistic potential, times higher than CHR” value in series [1] (from TEF values) is 100 times. The “toxic equivalent factor (TEF)” value in series [1] (toxic potential relative to the toxicity of BAP) is recorded as 1.0.

As for `Clc1cc2c(cc1Cl)Oc1cc(Cl)c(Cl)cc1O2` [TCDD, 2,3,7,8-Tetrachlorodibenzo-p-dioxin, reference compound], the concentration giving a half-maximal response (EC50) on Atlantic cod Ahr1a (Ahr1a EC50 (nM), COS-7 cells, 24 h exposure) was 1.7 nM; on Atlantic cod Ahr2a (Ahr2a EC50 (nM), COS-7 cells, 24 h exposure), 6.2 nM; in the series on rat AHR, 0.008 to 0.018 nM. Besides, the Emax on Atlantic cod Ahr1a (COS-7, read-out: Ahr1a Relative Emax (%)) came out at 99.7%; at Atlantic cod Ahr2a (COS-7, read-out: Ahr2a Relative Emax (%)) it was 99.4%.
